Measurements published in US9808470B2, “Estrogenic components for use in the treatment of neurological disorders” (UNIVERSITE DE LIEGE, priority 2012, dated 2017).

Key:
doublecortin (DCX) = assay: Ex.8 neuroprotective HIE rat model: doublecortin staining; type: in vivo; conditions: 5 mg/kg/day E4, DG
Method: Newborn rat pups were assigned to one of the following 14 groups from postnatal day 4 (FIG. 23(A)): Sham group (n=12), Vehicle group (n=17), 5 mg/kg/day E4 (n=13), 10 mg/kg/day E4 (n=10), 5 mg/kg/day E4+1.6 mg/kg/day PROG (n=11), 10 mg/kg/day E4+1.6 mg/kg/day PROG (n=11), 5 mg/kg/day E4+16 mg/kg/day PROG (n=11), 10 mg/kg/day E4+16 mg/kg/day PROG (n=11), 5 mg/kg/day E4+136 ng//kg/day E2 (n=11), 10 mg/kg/day E4+136 ng/kg/day E2 (n=11), 5 mg/kg/day E4+1.6 mg/kg/day PROG+136 ng/kg/day (n=13) E2, 10 mg/kg/day E4+1.6 mg/kg/day PROG+136 ng/kg/day E2 (n=16), 5 mg/kg/day E4+16 mg/kg/day PROG+136 ng/kg/day E2 (n=11), 10 mg/kg/day E4+16 mg/kg/day PROG+136 ng/kg/day groups (n=13). Intraperitoneal injections of the pups from study groups were performed from postnatal day 4 to postnatal day 7 inclusively. […]
The sections were heated in 10 mmol/L citrate buffer (pH 6.0) at 100° C. for 10 minutes. […] Samples were analyzed with the aid of a microscope (Olympus Vanox AHBT3, Olympus), and the ImageJ software 15 (NIH). The percentage of positively stained cells was quantified as a sum of positively stained either DCX or VEGF cells divided by the total number of DAPI positive cells expressed in percentage.

[1] = tested on: Microtubule-associated protein 2 (MAP2); assay: Ex.8 therapeutic HIE rat model: MAP2 staining; type: in vivo
Method: To study the therapeutic effect of estetrol, newborn rat pups were assigned to one of the following 14 groups at postnatal day 7 (FIG. 23(B)): Sham group (n=12), Vehicle (n=15), 5 mg/kg/day E4 (n=11), 10 mg/kg/day E4 (n=11), 5 mg/kg/day E4+1.6 mg/kg/day PROG (n=11), 10 mg/kg/day E4+1.6 mg/kg/day PROG (n=11), 5 mg/kg/day E4+16 mg/kg/day PROG (n=11), 10 mg/kg/day E4+16 mg/kg/day PROG (n=13), 5 mg/kg/day E4+136 ng//kg/day E2 (n=11), 10 mg/kg/day E4+136 ng/kg/day E2 (n=11), 5 mg/kg/day E4+1.6 mg/kg/day PROG+136 ng/kg/day E2 (n=12), 10 mg/kg/day E4+1.6 mg/kg/day PROG+136 ng/kg/day E2 (n=11), 5 mg/kg/day E4+16 mg/kg/day PROG+136 ng/kg/day E2 (n=11), 10 mg/kg/day E4+16 mg/kg/day PROG+136 ng/kg/day (n=12) groups. […] After surgery, the pups were returned to their dams and allowed to recover for 1 hour. The pups were then placed in a humidified hypoxic in vivo cabinet (CoyLab). […]
The brain sections were processed for immunohistochemical detection of neuronal cytoskeletal disruption. […] Samples were analyzed with the aid of an image scanner (Nanozoomer Virtual Microscopy, Hamamatsu, Tokyo, Japan) and the ImageJ software (NIH, US). The positive areas in the ipsilateral and contralateral hemispheres were measured. The ratio of the MAP2 positive areas was calculated as the MAP2 positive area of the ipsilateral hemisphere divided by the MAP2 positive area of the contralateral hemisphere. […]

`C[C@]12CC[C@@H]3c4ccc(O)cc4CC[C@H]3[C@@H]1[C@@H](O)[C@@H](O)[C@@H]2O` [E4, 1,3,5(10)-estratrien-3,15α,16α,17β-tetrol] was tested, and the “percentage of DCX positively stained cells” value (doublecortin (DCX)) was 60.29±5.66%, the “MAP-2 positive area ratio” value ([1]; 5 mg/kg/day E4) was 0.98±0.02 and the “MAP-2 positive area ratio” value ([1]; 10 mg/kg/day E4) was 0.97±0.04.
